Data: patent US20060223117A1, “Novel splice variants of human epithelial sodium channel genes expressed in human taste tissue and uses thereof” (SENOMYX, INC., priority 2005, published 2006)
“Also recorded” adds a separate entry of the source.

Columns and labels:
perceived salt intensity = test: Senomyx human taste experiments, perceived salt intensity; type: in vivo
[1] = test system: intensity of sodium chloride; conditions: humans; concentrations that specifically inhibit ENaC function; cited from earlier work

| Structure (SMILES) | effect on perceived salt intensity (perceived salt intensity; tested at levels 3000-fold (printed: for benzamil) above IC50 values in oocytes) | effect on perceived salt intensity (perceived salt intensity; tested at levels 3000-fold (printed: for benzamil) above IC50 values in oocytes, listed as phenomil) | reduction of the intensity of sodium chloride [1] | effect on perceived salt intensity (perceived salt intensity; tested at levels 300-fold above IC50 values in oocytes) |
| --- | --- | --- | --- | --- |
| NC(=Nc1ccccc1)NC(=O)c1nc(Cl)c(N)nc1N [phenamil] | did not demonstrate a significant effect | did not exhibit a significant effect |  |  |
| N=C(N)NC(=O)c1nc(Cl)c(N)nc1N [amiloride] |  |  | 15-20% | did not exhibit a significant effect; also recorded: did not demonstrate a significant effect |
